Experiment [1] concerns the target T1, GMPPNP-bound KRAS G12C protein and cRAF RAS-binding domain (cRAF-RBD) (Homo sapiens, UniProt P01116, G12C).
T1 construct: made in house; host or cells: E. coli
As to the kind of experiment: Inhibitory activity on interaction between KRAS G12C and cRAF (Alpha technology). Format: biochemical. As to conditions: GMPPNP-bound KRAS G12C incubated with compound at 25° C. for 1 hour, then cRAF-RBD, Alpha signal; read-out: IC50. An outline of the steps:
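GMPPNP-loaded His-KRAS G12C (aa 1-169) preincubated 1 h at 25 °C with compound (pH 7.5 Tris, 1 mM MgCl2, TCEP, Tween 20), then cRAF-RBD (aa 50-132) and Alpha reagents added for 1.5 h at RT. Inhibition scaled between DMSO (0%) and GDP-bound KRAS (100%); IC50 by curve fitting.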

Experiment [2] addresses Gppcp-bound recombinant K-Ras4B G12C mutant protein (amino acids 1-169, C51S/C80L/C118S) (Homo sapiens, UniProt P01116, C118S/C51S/C80L/G12C). As to the kind of experiment: KRASG12C binding assay (LC-MS compound binding rate). As to conditions: test compound final concentration 0.5 μM, 25° C., 1 hour. An outline of the steps: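 Gppcp-bound K-Ras4B G12C (aa 1-169, C51S/C80L/C118S) at 50 nM in 1×TBS, 0.1 mM TCEP, 0.25 mM MgCl2, 50 μM Gppcp was incubated 1 hour at 25° C with compound at 0.5 μM final. Intact-protein LC-MS gave binding rate as single-adduct signal over total KRAS signal, graded A (≥80%) to E (<20%).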

A further experiment concerns MIA PaCa-2 cells. Briefly: Growth inhibition activity on KRAS-G12C mutant cell line (MIA PaCa-2). Format: cell-based. As to conditions: Homo sapiens, 72 h; MIA PaCa-2, 3-day culture, CellTiter-Glo 3D. The protocol: MIA PaCa-2 cells (given by Sumitomo Dainippon Pharma Co., Ltd.), which are a KRAS-G12C mutant human pancreas cancer cell line, were suspended in a 10% fetal bovine serum-containing RPMI1640 medium (manufactured by Fujifilm Wako Pure Chemical Corporation.). The cell suspension was seeded into each well of a 384-well U bottom microplate and cultured in an incubator containing 5% CO2 gas at 37° C. for 1 day. The compounds obtained in the “Preparation of Compounds” section were used as test compounds and were dissolved in DMSO, respectively, and each test compound was diluted with DMSO to give a concentration 500 times the final concentration. The resultant solution of the test compound in DMSO was diluted with the medium used for suspending cells and added to each well of the cell-culture plate to give a DMSO final concentration of 0.2%, followed by culture in an incubator containing 5% CO2 gas at 37° C. for another 3 days. The cell count after 3-day culture in the presence of the test compound was measured using CellTiter-Glo 3D Reagent (manufactured by Promega Corporation). All wells were added with CellTiter-Glo 3D Reagent and mixed for 10 minutes. 30 minutes after mixing, luminescence was measured by a plate reader. The growth inhibition rate was calculated from the following equation, and the concentration of the test compound at which 50% inhibition was achieved (IC50 (nM)) was determined. […] Growth Inhibition Rate (%)=(C−T)/(C)×100 • T: the emission intensity in a well into which a test compound was added. • C: the emission intensity in a well into which a test compound was not added.
(Cellular ATP, detected with luciferase, serves as a proxy for viable cell number.)

SMILES strings stand for the structures.

With `Cn1cnc2c(Cl)c(-c3cccn4c(C(=O)c5ccc(NC(=O)/C=C/CNC(C)(C)C)c(C#N)c5)ccc34)c(Cl)cc21` [Example 55, (E)-4-(tert-butylamino)-N-(2-cyano-4-(8-(4,6-dichloro-1-methyl-1H-benzo[d]imidazol-5-yl)indolizine-3-carbonyl)phenyl)but-2-enamide], the 50% inhibitory concentration (IC50) (in general, the midpoint of a concentration-inhibition curve) is 21 nM in experiment [1] and 140 nM in the experiment on MIA PaCa-2 cells. Also, the binding rate result in experiment [2] is “A (A binding rate of 80% or more is rated “A”)”.
Take `CO[C@H]1CC[C@H](NC/C=C/C(=O)Nc2ccc(C(=O)c3csc4c(-c5cc6ncn(C)c6cc5C)cccc34)cc2C#N)CC1` [Example 56, (E)-N-(2-cyano-4-(7-(1,6-dimethyl-1H-benzo[d]imidazol-5-yl)benzo[b]thiophene-3-carbonyl)phenyl)-4-(((1r,4r)-4-methoxycyclohexyl)amino)but-2-enamide]: the concentration for half-maximal inhibition (IC50) was 86 nM in experiment [1] and 350 nM in the experiment on MIA PaCa-2 cells. The binding rate result in experiment [2] was “A (A binding rate of 80% or more is rated “A”)”.
Taken in the same sequence, the figures for `Cc1cc2c(ncn2C)c(Cl)c1-c1cccn2c(C(=O)c3ccc(NC(=O)/C=C/CNC(C)(C)C)c(C#N)c3)ccc12` [Example 59, (E)-4-(tert-butylamino)-N-(4-(8-(4-chloro-1,6-dimethyl-1H-benzo[d]imidazol-5-yl)indolizine-3-carbonyl)-2-cyanophenyl)but-2-enamide] were 19 nM, 64 nM and “A (A binding rate of 80% or more is rated “A”)”.
On the same counts, the results for `CO[C@H]1CC[C@H](NC/C=C/C(=O)Nc2ccc(C(=O)c3ccc4c(-c5c(C)cc6c(ncn6C)c5Cl)cccn34)cc2C#N)CC1` [Example 60, (E)-N-(4-(8-(4-chloro-1,6-dimethyl-1H-benzo[d]imidazol-5-yl)indolizine-3-carbonyl)-2-cyanophenyl)-4-(((1r,4r)-4-methoxycyclohexyl)amino)but-2-enamide] are 20 nM, 59 nM and “A (A binding rate of 80% or more is rated “A”)”.
On the same counts, the results for `CO[C@H]1CC[C@H](NC/C=C/C(=O)Nc2ccc(C(=O)c3ccc4c(-c5c(C)cc6c(ncn6C)c5C(C)C)cccn34)cc2C#N)CC1` [Example 64, (E)-N-(2-cyano-4-(8-(4-isopropyl-1,6-dimethyl-1H-benzo[d]imidazol-5-yl)indolizine-3-carbonyl)phenyl)-4-(((1r,4r)-4-methoxycyclohexyl)amino)but-2-enamide] are 82 nM, 69 nM and “A (A binding rate of 80% or more is rated “A”)”.
Turning to `CN(C)C/C=C/C(=O)Nc1ccc(C(=O)c2ccc3c(-c4cc5ncn(C)c5cc4C(F)(F)F)cccn23)cc1C#N` [Example 66, (E)-N-(2-cyano-4-(8-(1-methyl-6-(trifluoromethyl)-1H-benzo[d]imidazol-5-yl)indolizine-3-carbonyl)phenyl)-4-(dimethylamino)but-2-enamide], the values for the IC50 (in experiment [1]; with MIA PaCa-2 cells) were 84 nM and 240 nM, respectively. Also, the binding rate entry in experiment [2] was “C (a binding rate of 40% or more and less than 60% is rated “C”)”.
`Cn1cnc2cc(-c3cccn4c(C(=O)c5cc(F)c(NC(=O)/C=C/CNC(C)(C)C)c(F)c5)cnc34)c(C(F)(F)F)cc21` [Example 67, (E)-4-(tert-butylamino)-N-(2,6-difluoro-4-(8-(1-methyl-6-(trifluoromethyl)-1H-benzo[d]imidazol-5-yl)imidazo[1,2-a]pyridine-3-carbonyl)phenyl)but-2-enamide]: the figures for the IC50 (in experiment [1]; in the experiment on MIA PaCa-2 cells) were 63 nM and 560 nM, respectively. In experiment [2], the binding rate result is “B (a binding rate of 60% or more and less than 80% is rated “B”)”.
